According to patent EP2776398B1, “SUBSTITUTED PYRAZOLYL-BASED UREA DERIVATIVES AS VANILLOID RECEPTOR LIGANDS” (Medifron DBT Inc., priority 2011, dated 2013):

Target: T1, vanilloid receptor 1 (VR1/TRPV1 receptor) (Homo sapiens, UniProt Q8NER1)
T1 construct: expressed in transfected cells; host or cells: CHO K1 cells (ECACC), stably transfected
Test: Functional testing on vanilloid receptor 1: FLIPR Ca2+ influx assay against capsaicin (Cap) in transfected CHO K1 cells (pharmacological method II); as to Ki: 100 nM capsaicin
Type: cell-based
Parameters: key to (f) Ki (human being) [nM] Cap: agonist classification: AG = agonist
Settings: for Ki: read-out: (f) Ki (human being) [nM] Cap; for (f) Ki (human being) [nM] Cap: agonist classification: AG printed instead of a Ki
Text: […]

T1 sequence (Q8NER1 whole entry): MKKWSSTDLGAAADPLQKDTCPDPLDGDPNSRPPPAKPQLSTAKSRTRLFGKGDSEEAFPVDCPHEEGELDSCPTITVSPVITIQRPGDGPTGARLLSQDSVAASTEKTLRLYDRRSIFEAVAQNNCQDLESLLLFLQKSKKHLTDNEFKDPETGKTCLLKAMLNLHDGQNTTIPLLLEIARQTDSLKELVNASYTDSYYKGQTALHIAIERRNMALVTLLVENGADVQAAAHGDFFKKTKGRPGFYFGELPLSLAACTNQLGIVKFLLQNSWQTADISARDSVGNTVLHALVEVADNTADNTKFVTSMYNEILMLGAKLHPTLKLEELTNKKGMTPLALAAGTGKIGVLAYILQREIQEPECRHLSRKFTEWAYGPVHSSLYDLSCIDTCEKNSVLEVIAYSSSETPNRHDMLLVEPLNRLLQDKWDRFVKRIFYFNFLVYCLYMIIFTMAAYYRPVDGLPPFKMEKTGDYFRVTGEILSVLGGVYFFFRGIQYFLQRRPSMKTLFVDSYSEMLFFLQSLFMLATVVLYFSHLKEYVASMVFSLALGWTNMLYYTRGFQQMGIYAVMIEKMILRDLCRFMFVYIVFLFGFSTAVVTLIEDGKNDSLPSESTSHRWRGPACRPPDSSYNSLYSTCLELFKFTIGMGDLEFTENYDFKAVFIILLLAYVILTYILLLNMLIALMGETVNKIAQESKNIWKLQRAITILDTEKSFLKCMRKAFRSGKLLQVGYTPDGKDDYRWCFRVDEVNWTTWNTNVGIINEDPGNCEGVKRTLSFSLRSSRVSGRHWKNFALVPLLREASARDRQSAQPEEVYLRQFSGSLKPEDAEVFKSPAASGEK

Row | Compound | Ki [nM] | other results
1 | COc1c(F)cc(CC(=O)NCc2cc(C(C)(C)C)nn2-c2cccc(Cl)c2)cc1F [A1, N-[[5-tert-Butyl-2-(3-chlorophenyl)-2H-pyrazol-3-yl]-methyl]-2-(3,5-difluoro-4-methoxy-phenyl)-acetamide] | 12 | –
2 | COc1c(F)cc(CC(=O)NCc2cc(C(F)(F)F)nn2-c2cccc(Cl)c2)cc1F [A2, N-[[2-(3-Chlorophenyl)-5-(trifluoromethyl)-2H-pyrazol-3-yl]-methyl]-2-(3,5-difluoro-4-methoxy-phenyl)-acetamide] | 33 | –
3 | COc1c(F)cc(C(C)C(=O)NCc2cc(C3CC3)nn2-c2cccc(Cl)c2)cc1F (stereo not shown) [A3, N-[[2-(3-Chlorophenyl)-5-cyclopropyl-2H-pyrazol-3-yl]-methyl]-2-(3,5-difluoro-4-methoxy-phenyl)-propionamide] | 6 | –
4 | COc1c(F)cc(C(C)C(=O)NCc2cc(C(C)(C)C)nn2-c2cccc(Cl)c2)cc1F (stereo not shown) [A4, N-[[5-tert-Butyl-2-(3-chlorophenyl)-2H-pyrazol-3-yl]-methyl]-2-(3,5-difluoro-4-methoxy-phenyl)-propionamide] | 2 | –
5 | COc1c(F)cc(C(C)C(=O)NCc2cc(C(C)(C)C)nn2-c2ccc(F)c(Cl)c2)cc1F (stereo not shown) [A5, N-[[5-tert-Butyl-2-(3-chloro-4-fluoro-phenyl)-2H-pyrazol-3-yl]-methyl]-2-(3,5-difluoro-4-methoxy-phenyl)-propionamide] | – | (f) Ki (human being) [nM] Cap: agonist classification (human VR1 in CHO K1 cells): AG
6 | COc1c(F)cc(CC(=O)NCc2cc(C(C)(C)C)nn2-c2ccc(F)c(Cl)c2)cc1F [A6, N-[[5-tert-Butyl-2-(3-chloro-4-fluoro-phenyl)-2H-pyrazol-3-yl]-methyl]-2-(3,5-difluoro-4-methoxy-phenyl)-acetamide] | 14 | –
7 | COc1c(F)cc(CC(=O)NCc2cc(C(F)(F)F)nn2-c2ccc(F)c(Cl)c2)cc1F [A7, N-[[2-(3-Chloro-4-fluoro-phenyl)-5-(trifluoromethyl)-2H-pyrazol-3-yl]-methyl]-2-(3,5-difluoro-4-methoxy-phenyl)-acetamide] | 26 | –
8 | COc1c(F)cc(NC(=O)NCc2cc(C(F)(F)F)nn2-c2cccc(Cl)c2)cc1F [A8, 1-[[2-(3-Chlorophenyl)-5-(trifluoromethyl)-2H-pyrazol-3-yl]-methyl]-3-(3,5-difluoro-4-methoxy-phenyl)-urea] | 55 | –
9 | COc1c(F)cc(C(C)C(=O)NCc2cc(C(F)(F)F)nn2-c2ccc(F)c(Cl)c2)cc1F (stereo not shown) [A9, N-[[2-(3-Chloro-4-fluoro-phenyl)-5-(trifluoromethyl)-2H-pyrazol-3-yl]-methyl]-2-(3,5-difluoro-4-methoxy-phenyl)-propionamide] | 7 | –
10 | CC(C(=O)NCc1cc(C(F)(F)F)nn1-c1cccc(Cl)c1)c1cc(F)c(O)c(F)c1 (stereo not shown) [A10, N-[[2-(3-Chlorophenyl)-5-(trifluoromethyl)-2H-pyrazol-3-yl]-methyl]-2-(3,5-difluoro-4-hydroxy-phenyl)-propionamide] | 1 | –
11 | CC(C)(C)c1cc(CNC(=O)Nc2cc(F)c(O)c(F)c2)n(-c2cccc(Cl)c2)n1 [A11, 1-[[5-tert-Butyl-2-(3-chlorophenyl)-2H-pyrazol-3-yl]-methyl]-3-(3,5-difluoro-4-hydroxy-phenyl)-urea] | – | (f) Ki (human being) [nM] Cap: agonist classification (human VR1 in CHO K1 cells): AG
12 | O=C(NCc1cc(C(F)(F)F)nn1-c1cccc(Cl)c1)Nc1cc(F)c(O)c(F)c1 [A12, 1-[[2-(3-Chlorophenyl)-5-(trifluoromethyl)-2H-pyrazol-3-yl]-methyl]-3-(3,5-difluoro-4-hydroxy-phenyl)-urea] | 8 | –
13 | COc1ccc(NC(=O)NCc2cc(C(C)(C)C)nn2-c2cccc(Cl)c2)cc1OC [A13, 1-[[5-tert-Butyl-2-(3-chlorophenyl)-2H-pyrazol-3-yl]-methyl]-3-(3,4-dimethoxyphenyl)-urea] | – | (f) Ki (human being) [nM] Cap: agonist classification (human VR1 in CHO K1 cells): AG
14 | COc1ccc(NC(=O)NCc2cc(C(F)(F)F)nn2-c2cccc(Cl)c2)cc1OC [A14, 1-[[2-(3-Chlorophenyl)-5-(trifluoromethyl)-2H-pyrazol-3-yl]-methyl]-3-(3,4-dimethoxyphenyl)-urea] | 25 | –
15 | COc1cc(NC(=O)NCc2cc(C(F)(F)F)nn2-c2cccc(Cl)c2)ccc1O [A15, 1-[[2-(3-Chlorophenyl)-5-(trifluoromethyl)-2H-pyrazol-3-yl]-methyl]-3-(4-hydroxy-3-methoxy-phenyl)-urea] | – | (f) Ki (human being) [nM] Cap: agonist classification (human VR1 in CHO K1 cells): AG
16 | COc1ccc(NC(=O)NCc2cc(C(F)(F)F)nn2-c2cccc(Cl)c2)cc1O [A16, 1-[[2-(3-Chlorophenyl)-5-(trifluoromethyl)-2H-pyrazol-3-yl]-methyl]-3-(3-hydroxy-4-methoxy-phenyl)-urea] | – | (f) Ki (human being) [nM] Cap: agonist classification (human VR1 in CHO K1 cells): AG
17 | COCCOc1ccc(NC(=O)NCc2cc(C(C)(C)C)nn2-c2cccc(Cl)c2)cc1F [A17, 1-[[5-tert-Butyl-2-(3-chlorophenyl)-2H-pyrazol-3-yl]-methyl]-3-[3-fluoro-4-(2-methoxy-ethoxy)-phenyl]-urea] | – | (f) Ki (human being) [nM] Cap: agonist classification (human VR1 in CHO K1 cells): AG

Row | Compound | Ki [nM] | other results
18 | COCCOc1ccc(NC(=O)NCc2cc(C(F)(F)F)nn2-c2cccc(Cl)c2)cc1F [A18, 1-[[2-(3-Chlorophenyl)-5-(trifluoromethyl)-2H-pyrazol-3-yl]-methyl]-3-[3-fluoro-4-(2-methoxy-ethoxy)-phenyl]-urea] | 68 | –
19 | CC(C)(C)c1cc(CNC(=O)Nc2ccc(OCCO)c(F)c2)n(-c2cccc(Cl)c2)n1 [A19, 1-[[5-tert-Butyl-2-(3-chlorophenyl)-2H-pyrazol-3-yl]-methyl]-3-[3-fluoro-4-(2-hydroxy-ethoxy)-phenyl]-urea] | 13 | –
20 | O=C(NCc1cc(C(F)(F)F)nn1-c1cccc(Cl)c1)Nc1ccc(OCCO)c(F)c1 [A20, 1-[[2-(3-Chlorophenyl)-5-(trifluoromethyl)-2H-pyrazol-3-yl]-methyl]-3-[3-fluoro-4-(2-hydroxy-ethoxy)-phenyl]-urea] | 37 | –
21 | O=C(NCc1cc(C(F)(F)F)nn1-c1cccc(F)c1)Nc1ccc(OCCO)c(F)c1 [A21, 1-[3-Fluoro-4-(2-hydroxy-ethoxy)-phenyl]-3-[[2-(3-fluorophenyl)-5-(trifluoromethyl)-2H-pyrazol-3-yl]-methyl]-urea] | 7 | –
22 | O=C(NCc1cc(C(F)(F)F)nn1-c1ccc(F)c(Cl)c1)Nc1ccc(OCCO)c(F)c1 [A22, 1-[[2-(3-Chloro-4-fluoro-phenyl)-5-(trifluoromethyl)-2H-pyrazol-3-yl]-methyl]-3-[3-fluoro-4-(2-hydroxy-ethoxy)-phenyl]-urea] | 40 | –
23 | O=C(NCc1cc(C(F)(F)F)nn1-c1cccc(Cl)c1)Nc1ccc(OCC(O)CO)cc1 (stereo not shown) [A23, 1-[[2-(3-Chlorophenyl)-5-(trifluoromethyl)-2H-pyrazol-3-yl]-methyl]-3-[4-(2,3-dihydroxy-propoxy)-phenyl]-urea] | 35 | –
24 | CC(C)(C)c1cc(CNC(=O)Nc2ccc(OCC(O)CO)c(F)c2)n(-c2cccc(Cl)c2)n1 (stereo not shown) [A24, 1-[[5-tert-Butyl-2-(3-chlorophenyl)-2H-pyrazol-3-yl]-methyl]-3-[4-(2,3-dihydroxy-propoxy)-3-fluoro-phenyl]-urea] | – | (f) Ki (human being) [nM] Cap: agonist classification (human VR1 in CHO K1 cells): AG
25 | O=C(NCc1cc(C(F)(F)F)nn1-c1cccc(Cl)c1)Nc1ccc(OCC(O)CO)c(F)c1 (stereo not shown) [A25, 1-[[2-(3-Chlorophenyl)-5-(trifluoromethyl)-2H-pyrazol-3-yl]-methyl]-3-[4-(2,3-dihydroxy-propoxy)-3-fluoro-phenyl]-urea] | 65 | –
26 | O=C(NCc1cc(C(F)(F)F)nn1-c1cccc(F)c1)Nc1ccc(OCC(O)CO)cc1 (stereo not shown) [A26, 1-[4-(2,3-Dihydroxy-propoxy)-phenyl]-3-[[2-(3-fluorophenyl)-5-(trifluoromethyl)-2H-pyrazol-3-yl]-methyl]-urea] | – | inhibition at 1 µM (@ 1µM, human VR1 in CHO K1 cells, capsaicin, relative to maximum inhibition with 10 µM capsazepine, read-out: inhibition (as a percentage), printed in column (f) Ki (human being) [nM] Cap): 34%
27 | CC(C)(C)c1cc(CNC(=O)Nc2ccc(CO)cc2)n(-c2cccc(Cl)c2)n1 [A27, 1-[[5-tert-Butyl-2-(3-chlorophenyl)-2H-pyrazol-3-yl]-methyl]-3-[4-(hydroxymethyl)-phenyl]-urea] | 1 | –
28 | O=C(NCc1cc(C(F)(F)F)nn1-c1cccc(Cl)c1)Nc1ccc(CO)cc1 [A28, 1-[[2-(3-Chlorophenyl)-5-(trifluoromethyl)-2H-pyrazol-3-yl]-methyl]-3-[4-(hydroxymethyl)-phenyl]-urea] | 22 | –
29 | CC(C)(C)c1cc(CNC(=O)Cc2ccc(CO)c(F)c2)n(-c2cccc(Cl)c2)n1 [A29, N-[[5-tert-Butyl-2-(3-chlorophenyl)-2H-pyrazol-3-yl]-methyl]-2-[3-fluoro-4-(hydroxymethyl)-phenyl]-acetamide] | 1 | –
30 | O=C(Cc1ccc(CO)c(F)c1)NCc1cc(C(F)(F)F)nn1-c1cccc(Cl)c1 [A30, N-[[2-(3-Chlorophenyl)-5-(trifluoromethyl)-2H-pyrazol-3-yl]-methyl]-2-[3-fluoro-4-(hydroxymethyl)-phenyl]-acetamide] | 21 | –
31 | CC(C(=O)NCc1cc(C2CC2)nn1-c1cccc(Cl)c1)c1ccc(CO)c(F)c1 (stereo not shown) [A31, N-[[2-(3-Chlorophenyl)-5-cyclopropyl-2H-pyrazol-3-yl]-methyl]-2-[3-fluoro-4-(hydroxymethyl)-phenyl]-propionamide] | 3 | –
32 | CC(C(=O)NCc1cc(C(C)(C)C)nn1-c1cccc(Cl)c1)c1ccc(CO)c(F)c1 (stereo not shown) [A32, N-[[5-tert-Butyl-2-(3-chlorophenyl)-2H-pyrazol-3-yl]-methyl]-2-[3-fluoro-4-(hydroxymethyl)-phenyl]-propionamide] | – | (f) Ki (human being) [nM] Cap: agonist classification (human VR1 in CHO K1 cells): AG
33 | CC(C(=O)NCc1cc(C(F)(F)F)nn1-c1cccc(Cl)c1)c1ccc(CO)c(F)c1 (stereo not shown) [A33, N-[[2-(3-Chlorophenyl)-5-(trifluoromethyl)-2H-pyrazol-3-yl]-methyl]-2-[3-fluoro-4-(hydroxymethyl)-phenyl]-propionamide] | 2 | –
34 | C[C@H](C(=O)NCc1cc(C(F)(F)F)nn1-c1cccc(Cl)c1)c1ccc(CO)c(F)c1 [A34, (2S)-N-[[2-(3-Chlorophenyl)-5-(trifluoromethyl)-2H-pyrazol-3-yl]-methyl]-2-[3-fluoro-4-(hydroxymethyl)-phenyl]-propionamide] | 37 | –
